Assay results reported in ChEMBL document CHEMBL4321809, “Structure-Reactivity Relationships on Substrates and Inhibitors of the Lysine Deacylase Sirtuin 2 from Schistosoma mansoni (SmSirt2)” (J Med Chem, 2019).
Activity calls are given as the source filed them. No cut-off for these calls is given here.

Legend:
[1] = target: T1, NAD-dependent protein deacetylase sirtuin-2 (Homo sapiens, UniProt Q8IXJ6); experiment: Inhibition of N-terminal His6 tagged human sirtuin 2 (25 to 389 residues) using Cbz-Lys(acetyl)-AMC as substrate after 4 hrs in presence of NAD+ by homogeneous fluorescence based analysis
T1 sequence (Q8IXJ6 whole entry): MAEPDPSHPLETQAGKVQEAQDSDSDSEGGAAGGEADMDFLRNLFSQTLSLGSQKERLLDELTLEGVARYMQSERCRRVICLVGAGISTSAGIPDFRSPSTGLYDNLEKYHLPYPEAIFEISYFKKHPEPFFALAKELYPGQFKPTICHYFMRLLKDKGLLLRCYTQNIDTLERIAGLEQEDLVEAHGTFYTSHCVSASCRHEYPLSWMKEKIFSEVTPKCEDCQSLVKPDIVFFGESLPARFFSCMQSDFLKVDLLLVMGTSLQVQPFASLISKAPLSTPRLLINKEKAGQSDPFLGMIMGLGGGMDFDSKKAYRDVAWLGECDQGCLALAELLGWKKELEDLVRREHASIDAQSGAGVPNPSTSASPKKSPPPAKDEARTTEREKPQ

[2] = target: T2, NAD-dependent protein deacetylase (Schistosoma mansoni, UniProt T1VXA1); experiment: Inhibition of recombinant Schistosoma mansoni sirtuin 2 (21 to 322 residues) expressed in Escherichia coli BL21(DE3) cells using ZMAL as substrate after 1 hr in presence of NAD+ by homogeneous fluorescence based analysis
T2 sequence (T1VXA1 whole entry): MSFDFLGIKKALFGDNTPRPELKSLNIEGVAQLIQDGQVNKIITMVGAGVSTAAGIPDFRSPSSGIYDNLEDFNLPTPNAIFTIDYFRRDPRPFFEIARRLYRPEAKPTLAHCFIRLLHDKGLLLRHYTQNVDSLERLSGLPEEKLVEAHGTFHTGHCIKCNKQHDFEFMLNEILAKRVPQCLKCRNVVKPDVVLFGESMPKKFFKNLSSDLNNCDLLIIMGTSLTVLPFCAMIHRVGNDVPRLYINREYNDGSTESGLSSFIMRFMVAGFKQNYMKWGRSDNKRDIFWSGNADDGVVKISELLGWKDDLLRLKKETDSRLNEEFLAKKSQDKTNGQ

Schistosoma mansoni [3] = experiment: Antiparasitic activity against adult Schistosoma mansoni Puerto Rico assessed as reduction in worm pairing at 10 to 20 uM after 24 hrs by microscopic analysis; assay type: functional, organism-based
[4] = target: T1, NAD-dependent protein deacetylase sirtuin-2; experiment: Inhibition of N-terminal His6 tagged human sirtuin 2 (25 to 389 residues) at 25 uM using Cbz-Lys(acetyl)-AMC as substrate after 4 hrs in presence of NAD+ by homogeneous fluorescence based analysis relative to control
Schistosoma mansoni [5] = experiment: Antiparasitic activity against Schistosoma mansoni Puerto Rico assessed as reduction in parasite viability at 10 to 20 uM after 72 hrs by microscopic analysis; assay type: functional, organism-based
Schistosoma mansoni [6] = experiment: Antiparasitic activity against adult Schistosoma mansoni Puerto Rico assessed as reduction in egg laying at 10 to 20 uM after 24 hrs by microscopic analysis; assay type: functional, organism-based
HL-60 = experiment: Cytotoxicity against human HL60 cells at 10 uM after 72 hrs by Cell titer MTS dye based analysis; conditions: hl-60, 72 h
[7] = target: T3, NAD-dependent protein deacetylase (Schistosoma mansoni) (UniProt T1VXA1); experiment: (§1) Inhibition of recombinant Schistosoma mansoni sirtuin 2 (21 to 322 residues) expressed in Escherichia coli BL21(DE3) cells at 25 uM using ZMAL as susbtrate after 1 hr in presence of NAD+ by homogeneous fluorescence based analysis relative to control
T3 sequence (whole entry): T2 sequence (T1VXA1 whole entry)

[8] = target: T3, NAD-dependent protein deacetylase (Schistosoma mansoni); experiment: as §1, with “cells assessed as inhibition of substrate demyristoylation” for “cells”, “20” for “25”, “(Z)-(Myr)-Lys-AMC” for “ZMAL”
[9] = target: T1, NAD-dependent protein deacetylase sirtuin-2; experiment: Inhibition of N-terminal His6 tagged human sirtuin 2 (25 to 389 residues) assessed as inhibition of substrate demyristoylation using (Z)-(Myr)-Lys-AMC as susbtrate after 4 hrs in presence of NAD+ by homogeneous fluorescence based analysis
[10] = target: T4, NAD-dependent protein deacetylase sirtuin-3, mitochondrial (Homo sapiens, UniProt Q9NTG7); experiment: Inhibition of human sirtuin 3 at 25 uM relative to control
T4 sequence (Q9NTG7 whole entry): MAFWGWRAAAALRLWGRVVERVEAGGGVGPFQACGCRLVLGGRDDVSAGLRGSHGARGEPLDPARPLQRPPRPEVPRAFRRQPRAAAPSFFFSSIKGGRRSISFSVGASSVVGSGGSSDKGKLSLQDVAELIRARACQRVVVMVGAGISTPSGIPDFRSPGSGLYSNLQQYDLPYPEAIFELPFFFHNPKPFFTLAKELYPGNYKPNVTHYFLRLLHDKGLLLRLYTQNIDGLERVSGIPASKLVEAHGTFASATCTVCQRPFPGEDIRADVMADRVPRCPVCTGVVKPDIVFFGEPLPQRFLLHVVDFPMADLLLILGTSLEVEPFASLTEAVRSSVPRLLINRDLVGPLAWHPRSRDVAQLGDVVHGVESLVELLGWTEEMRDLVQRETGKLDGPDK

[11] = target: T5, NAD-dependent protein deacetylase sirtuin-1 (Homo sapiens, UniProt Q96EB6); experiment: Inhibition of human sirtuin 1 at 25 uM relative to control
T5 sequence (Q96EB6 whole entry): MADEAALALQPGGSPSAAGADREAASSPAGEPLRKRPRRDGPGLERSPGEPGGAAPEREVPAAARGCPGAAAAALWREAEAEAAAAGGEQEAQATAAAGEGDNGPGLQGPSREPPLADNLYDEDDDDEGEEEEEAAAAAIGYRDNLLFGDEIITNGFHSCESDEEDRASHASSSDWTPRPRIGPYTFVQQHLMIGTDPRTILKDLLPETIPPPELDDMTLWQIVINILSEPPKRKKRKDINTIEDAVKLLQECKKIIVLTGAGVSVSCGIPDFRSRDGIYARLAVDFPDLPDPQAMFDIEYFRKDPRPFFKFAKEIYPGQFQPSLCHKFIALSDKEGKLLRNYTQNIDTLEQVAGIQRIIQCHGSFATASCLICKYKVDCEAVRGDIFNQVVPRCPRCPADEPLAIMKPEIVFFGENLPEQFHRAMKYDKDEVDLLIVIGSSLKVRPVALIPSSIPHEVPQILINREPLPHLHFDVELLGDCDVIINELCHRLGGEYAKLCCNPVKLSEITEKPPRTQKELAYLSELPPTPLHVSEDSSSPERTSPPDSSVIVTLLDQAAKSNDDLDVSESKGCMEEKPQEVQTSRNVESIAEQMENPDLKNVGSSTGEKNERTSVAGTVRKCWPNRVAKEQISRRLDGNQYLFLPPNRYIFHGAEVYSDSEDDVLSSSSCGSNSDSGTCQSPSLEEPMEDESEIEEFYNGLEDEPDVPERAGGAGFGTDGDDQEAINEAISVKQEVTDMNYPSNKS

IC50 [2] [µM] | inhibition at 25 µM [4] [%] | inhibition [7] [%] | Structure (SMILES) | further results
14 to 14.5 | – | – | CC(=O)Nc1ccc(-c2noc(CC3CCCN(Cc4cccc(F)c4C)C3)n2)cc1 (configuration not stated) | IC50 [1]: 3.6 to 8 µM
12.5 | 7.4 | – | COc1cc(OC)cc(Oc2ccc(C(C)N(C)c3ncc4c(N)nc(N)nc4n3)cc2)c1 (configuration not stated) | inhibition (Schistosoma mansoni [3]): Active; inhibition (Schistosoma mansoni [5]): Active; inhibition (Schistosoma mansoni [6]): Active; Activity (HL-60): Non-Toxic
– | < 15 | < 15 | CC(c1ccccc1)N(C)c1ncc2c(N)nc(N)nc2n1 (configuration not stated) | –
– | < 15 | < 15 | CNC(C)c1ccc(Oc2ccccc2)cc1 (configuration not stated) | –
– | < 15 | 27.6 | CC(c1ccc(Oc2ccccc2)cc1)N(C)c1ncc2c(N)nc(N)nc2n1 (configuration not stated) | –
– | < 15 | < 15 | COc1ccc(CNc2ncc3c(N)nc(N)nc3n2)cc1 | –
65.1 | 40.8 | – | COc1ccc(Nc2ccc(C(C)N(C)c3ncc4c(N)nc(N)nc4n3)cc2)cc1 (configuration not stated) | –
– | < 15 | < 15 | Nc1ncc2c(N)nc(N)nc2n1 | –
– | < 15 | 24.8 | CC(c1ccc(-c2ccccc2)cc1)N(C)c1ncc2c(N)nc(N)nc2n1 (configuration not stated) | –
– | < 15 | < 15 | CC1CCCCN1c1ncc2c(N)nc(N)nc2n1 (configuration not stated) | –
– | < 15 | < 15 | Nc1nc(N)c2cnc(N3CCc4ccccc4C3)nc2n1 | –
14.9 | – | – | COc1ccc(Sc2ccc(C(C)N(C)c3ncc4c(N)nc(N)nc4n3)cc2)cc1 (configuration not stated) | IC50 [1]: 13.3 µM
3.3 | 29.6 | – | COc1cc(OC)cc(Oc2ccc(C(c3ccccc3)N(C)c3ncc4c(N)nc(N)nc4n3)cc2)c1 (configuration not stated) | inhibition (Schistosoma mansoni [3]): Active; inhibition [8]: < 15%; IC50 [9]: 13.1 µM; inhibition at 25 µM [10]: < 15%; inhibition at 25 µM [11]: < 15%; inhibition (Schistosoma mansoni [5]): Active; inhibition (Schistosoma mansoni [6]): Active; Activity (HL-60): Non-Toxic
23.1 | 33.8 | – | COc1cccc(Oc2ccc(C(C)N(C)c3ncc4c(N)nc(N)nc4n3)cc2)c1 (configuration not stated) | –
– | < 15 | < 15 | COc1ccc(Oc2ccc(CN(C)c3ncc4c(N)nc(N)nc4n3)cc2)cc1 | inhibition (Schistosoma mansoni [3]): Active; inhibition at 25 µM [10]: < 15%; inhibition at 25 µM [11]: < 15%; inhibition (Schistosoma mansoni [5]): Active; inhibition (Schistosoma mansoni [6]): Active; Activity (HL-60): Toxic
– | 37.5 | 20.3 | CC(c1ccc(Oc2ccc(OC(F)(F)F)cc2)cc1)N(C)c1ncc2c(N)nc(N)nc2n1 (configuration not stated) | –
12.8 | – | – | CCC(c1ccc(Oc2ccc(OC)cc2)cc1)N(C)c1ncc2c(N)nc(N)nc2n1 (configuration not stated) | IC50 [1]: 36.7 µM
– | 61.7 | 46.2 | COc1ccc(COc2ccc(C(C)N(C)c3ncc4c(N)nc(N)nc4n3)cc2)cc1 (configuration not stated) | inhibition (Schistosoma mansoni [3]): Active; inhibition at 25 µM [10]: < 15%; inhibition at 25 µM [11]: < 15%; inhibition (Schistosoma mansoni [5]): Active; inhibition (Schistosoma mansoni [6]): Active; Activity (HL-60): Toxic

IC50 [2] [µM] | inhibition at 25 µM [4] [%] | inhibition [7] [%] | Structure (SMILES) | further results
– | < 15 | < 15 | CCCCCCCCCC(=O)Nc1ccc(-c2noc(CC3CCCN(Cc4cccc(F)c4C)C3)n2)cc1 (configuration not stated) | –
1.9 | – | – | COC1=C(OC)C(=O)C(CCCCCCCCCCO)=C(C)C1=O [IDEBENONE] | IC50 [1]: 15.4 µM
– | < 15 | < 15 | COc1ccc(Oc2ccc(CN(C)c3ncc(C#N)c(N)n3)cc2)cc1 | –
– | < 15 | < 15 | CN(Cc1ccccc1)c1ncc2c(N)nc(N)nc2n1 | –
– | 21 | 37.5 | COc1ccc(Oc2ccc(C(C)Nc3ncc4c(N)nc(N)nc4n3)cc2)cc1 (configuration not stated) | –
2.34 | 22.1 | – | COc1ccc(Oc2ccc(C(c3ccccc3)N(C)c3ncc4c(N)nc(N)nc4n3)cc2)cc1 (configuration not stated) | inhibition (Schistosoma mansoni [3]): Active; Imax [7]: 60%; inhibition (Schistosoma mansoni [5]): Active; inhibition (Schistosoma mansoni [6]): Active; Activity (HL-60): Non-Toxic
– | < 15 | 30.5 | CCCCCCCC(=O)Nc1ccc(-c2noc(CC3CCCN(Cc4cccc(F)c4C)C3)n2)cc1 (configuration not stated) | –
30.8 | 29.2 | – | COc1cc(Oc2ccc(C(C)N(C)c3ncc4c(N)nc(N)nc4n3)cc2)cc(OC)c1OC (configuration not stated) | –
4.3 | 27.9 | – | COc1cc(OC)cc(Sc2ccc(C(C)N(C)c3ncc4c(N)nc(N)nc4n3)cc2)c1 (configuration not stated) | inhibition (Schistosoma mansoni [3]): Active; inhibition [8]: 15%; IC50 [9]: 25.1 µM; inhibition at 25 µM [10]: < 15%; inhibition at 25 µM [11]: < 15%; inhibition (Schistosoma mansoni [5]): Active; inhibition (Schistosoma mansoni [6]): Active; Activity (HL-60): Non-Toxic
– | 23.2 | < 15 | Nc1nc(N)c2cnc(NC3CCN(Cc4ccccc4)CC3)nc2n1 | –
– | < 15 | < 15 | COc1ccc(C(C)N(C)c2ncc3c(N)nc(N)nc3n2)cc1 (configuration not stated) | –
44.7 | 35.3 | – | COc1ccc(Oc2ccc(C(C)N(C)c3ncc4c(N)nc(N)nc4n3)cc2)cc1OC (configuration not stated) | –
– | 30.6 | 18.4 | COc1ccc(Oc2ccc(C(C)N(C)c3ncc4c(N)nc(N)nc4n3)cc2)c2ccccc12 (configuration not stated) | –
– | < 15 | < 15 | CC(Nc1ncc2c(N)nc(N)nc2n1)c1ccccc1 (configuration not stated) | –
– | 70.4 | 40.3 | CC(c1ccc(Oc2ccc(OCc3ccccc3)cc2)cc1)N(C)c1ncc2c(N)nc(N)nc2n1 (configuration not stated) | –
– | < 15 | < 15 | Nc1nc(N)c2cnc(N3CCN(c4ccccc4)CC3)nc2n1 | –
27.7 | 57.4 | – | COc1ccc(Oc2ccc(C(C(C)C)N(C)c3ncc4c(N)nc(N)nc4n3)cc2)cc1 (configuration not stated) | –
